Reference: US20240293563A1, “GLP-1 RECEPTOR LIGAND MOIETY CONJUGATED OLIGONUCLEOTIDES AND USES THEREOF” (priority 2017, published 2024)
k = constrained ethyl (cEt); d = 2'-deoxy (DNA)

Tests used:
FOXO1 mRNA [1] = assay: FOXO1 mRNA in cultured mouse primary islets of Langerhans treated with ASO; format: cell-based; details: for Islet FOXO1 mRNA levels relative to control (RPLP0): percent of untreated cells, 1 μM ASO 3 hrs every 24 hrs
Procedure: Pancreatic islets were isolated by collagenase digestion from pancreas collected from exsanguinated 12 to 15 weeks old female C57BL/6Crl mice. Islets were maintained in tissue culture until use. Islet were dissociated into single cells by shaking in media containing a low extracellular calcium concentration. 10 to 20 intact or dissociated islets were plated on plastic Petri Dishes and treated with 10 μM of antisense oligonucleotides for approximately 24 hrs. After the treatment period cells were harvested, RNA isolated, adjusted to total RNA content, as measured by RIBOGREEN®. MALAT1 or FOXO1 mRNA levels measured by quantitative real-time PCR. […] All data was normalized to the mRNA level of the house keeping gene (RPLP0) in the same sample, measured using a primer probe set with forward sequence […] NO: 71), reverse sequence […] NO: 72) and probe sequence […] NO: 73). Pancreatic islets were isolated by collagenase digestion from pancreas collected from euthanized 12 to 15 weeks old female B6.Cg-Lepob/J mice and maintained in tissue culture until use. 150 intact islets were placed in plastic Petri Dishes and treated with 1 μM of antisense oligonucleotides for 3 hrs every 24 hrs and harvested after approximately 24 hrs, 48 hrs or 96 hrs total treatment time respectively. After the treatment period, islets were harvested, and half of the islets were used to measure FOXO1 mRNA levels as described herein (Example 9). Half of the islets were homogenized in M-PER protein extraction reagent (Thermo Scientific) containing a protease inhibitor cocktail (Complete Mini and phosphoSTOP, Roche Diagnostics). The protein content of lysates were quantitated using BCA Assay Reagent (Pierce). […] For the anti-FoxO1 antibody, the secondary antibody was HRP-conjugated polyclonal goat anti-Rabbit P0448 (DAKO) and for the anti-α-tubulin antibody, the secondary antibody was HRP-conjugated polyclonal goat anti-mouse P0447 (DAKO). Enhanced chemiluminescence reagents (Pierce) were used for detection.

FOXO1 mRNA [2] = assay: FOXO1 mRNA in isolated islets and liver 72 hrs after single subcutaneous dose; format: in vivo, mouse; details: single subcutaneous injection 0.01 or 1 μmol/kg
Procedure: (§1) Pancreatic islets were isolated by collagenase digestion from pancreas collected from exsanguinated 12 to 15 weeks old female C57BL/6Crl mice. Islets were maintained in tissue culture until use. Islet were dissociated into single cells by shaking in media containing a low extracellular calcium concentration. 10 to 20 intact or dissociated islets were plated on plastic Petri Dishes and treated with 10 μM of antisense oligonucleotides for approximately 24 hrs. After the treatment period cells were harvested, RNA isolated, adjusted to total RNA content, as measured by RIBOGREEN®. MALAT1 or FOXO1 mRNA levels measured by quantitative real-time PCR. Mouse Malat1 mRNA levels was measured using gene expression assay Mm01227912_s1 from Applied Biosystems, whereas mouse FOXO1 mRNA levels was measured using a primer probe set with forward sequence […] All data was normalized to the mRNA level of the house keeping gene (RPLP0) in the same sample, measured using a primer probe set with forward sequence […]
(§2) All animals were sacrificed 72 hrs after last dose.

FOXO1 mRNA [3] = assay: FOXO1 mRNA in isolated islets and liver after 6 weeks repeated administration to ob/ob mice; format: in vivo, mouse; details: male ob/ob mice; 0.1 μmol/kg once weekly for 6 weeks; 120 hrs after last dose
Procedure: Pancreatic islets were isolated by collagenase digestion from pancreas collected from exsanguinated 12 to 15 weeks old female C57BL/6Crl mice. Islets were maintained in tissue culture until use. Islet were dissociated into single cells by shaking in media containing a low extracellular calcium concentration. 10 to 20 intact or dissociated islets were plated on plastic Petri Dishes and treated with 10 μM of antisense oligonucleotides for approximately 24 hrs. After the treatment period cells were harvested, RNA isolated, adjusted to total RNA content, as measured by RIBOGREEN®. MALAT1 or FOXO1 mRNA levels measured by quantitative real-time PCR. […] All data was normalized to the mRNA level of the house keeping gene (RPLP0) in the same sample, measured using a primer probe set with forward sequence […] NO: 71), reverse sequence […] NO: 72) and probe sequence […] NO: 73). Male ob/ob mice (B6.V-Lepob/OlaHsd, Harlan) were assigned to five treatment groups receiving either vehicle, 0.1 μmol/kg ISIS 776102, 0.1 μmol/kg ION 913195, 0.03 ION 913193 or 1 μmol/kg ION 913193. All animals were treated once weekly for 6 weeks. Approximately 120 hrs after last dose all animals were sacrificed, liver samples collected and pancreatic islets isolated, as described herein (Example 9), for mRNA analysis. FOXO1 mRNA levels were quantified as described herein (Example 9) and mRNA levels expressed relative to housekeeping gene in each sample (RPLP0).

MALAT1 [4] = assay: In situ hybridization of MALAT1 (QuantiGene ViewRNA) in mouse tissues after intravenous ASO; format: in vivo
Text: NO: 63) or a GLP-1 conjugated MALAT1 ASO (ISIS 816385) described in Example 1 at concentrations of 1.8. 0.6, or 0.2 μmol/kg. […] MALAT1 expression was detected using the QuantiGene ViewRNA tissue assay (Affymetrix, cat. No. QVT0011). Species-specific MALAT1 probes were purchased from Affymetrix (cat. No. VB-11110-01/mouse; VF1-13963/monkey). In brief, mouse tissues were fixed in 10% neutral-buffered formalin and embedded into paraffin and sectioned into […]. After deparaffinization, the tissue slides were boiled in Affymetrix pretreatment solution for 10-30 minutes followed by treatment with protease at 40° C. for 10 to 40 minutes depending on tissue. The MALAT1 RNA probe was used at a 1:40 dilution and was incubated with sample at 40° C. for 120 minutes. After washing, the MALAT1 RNA/probe complex was hybridized with preamplifier, amplifier, and AP-oligonucleotides at 40° C. for 25, 15, and 15 minutes, respectively. After removal of free AP oligonucleotide by washing in PBS, the slide was incubated with Fast Red substrate at room temperature for 30 minutes. The tissue images were acquired using an Aperio scanner. Hung et al., 2013 Nuc Acid Ther. 369-78. To determine a dose response of a GLP-1 conjugated MALAT1 ASO (ISIS 816385) described in Example 1 on pancreatic MALAT1 expression, male C57BL/6 mice fed a chow diet received a single intravenous injection of ISIS 816385 or an unconjugated MALAT1 ASO (ISIS 556089) described above at concentrations of 0.2, 0.06, and 0.02 μmol/kg. MALAT1 expression was detected using the QuantiGene ViewRNA tissue assay described above.

MALAT1 mRNA [5] = assay: Dose dependent antisense inhibition of MALAT1 in hGLP1R-HEK cells; format: cell-based, human; details: approximately 24 hrs, qRT-PCR normalized to RPLP0
Procedure: The hGLP1R-HEK cell line was generated by expressing hGLP1R in Flp-IN™ 293 cells. Cultured hGLP1R-HEK cells were seeded at a density 30,000 cells per well in 96 well plates and saline, 100 nM or 10 μM of unconjugated parent antisense oligonucleotide ISIS 556089 targeted to MALAT1 described above or ISIS 776102 (nucleobase sequence: […]) (SEQ ID NO: 64) targeted to FOXO1, or corresponding GLP-1 peptide conjugated antisense oligonucleotides (ISIS 816385 targeted to MALAT1 described above or ION 913193 targeted to FOXO1 described above) for approximately 24 hrs. After the treatment period, cells were harvested, the mRNA isolated and adjusted to total RNA content as measured by nanadrop UV-Vis spectrophotometer. MALAT1 or FOXO1 mRNA levels were measured by quantitative real-time PCR and normalized to the mRNA levels of the house keeping gene (RPLP0) in the same samples. Human MALAT1 mRNA levels were measured using gene expression assays HS00273907 and FOXO1 mRNA levels were measured using assay Hs01054576 (Applied Biosystems). The mRNA level of the house keeping gene RPLP0 was measured using a primer probe set with forward sequence […] CAT […] (SEQ ID NO: 66), reverse sequence […] (SEQ ID NO: 67). […]
After the treatment period cells were harvested, mRNA isolated and MALAT1 mRNA levels measured by quantitative real-time PCR using the primer probe set as described herein (Example 7). […]

MALAT1 mRNA [6] = assay: Dose dependent antisense inhibition of MALAT1 in WT HEK293 cells; format: cell-based, human; details: approximately 24 hrs, qRT-PCR normalized to RPLP0
MALAT1 [7] = assay: MALAT1 expression in pancreas by in situ hybridization (RNAscope); format: in vivo, mouse; details: 2 μmol/kg; subcutaneous or intravenous (ISIS 556089 subcutaneous only); 72 hrs after last dose
Text: Female C57BL/6Crl mice were assigned to five treatment groups. […] All animals were sacrificed approximately 72 hrs after last dose, and pancreas harvested for ex vivo analysis of uptake of antisense oligonucleotides by immunohistochemistry.
Female C57BL/6Crl mice were assigned to five treatment groups as described herein (Example 11) All animals were sacrificed approximately 72 hrs after last dose, and pancreas harvested for ex vivo analysis of MALAT1 expression by in situ hybridization.
The in situ mRNA amplification and labelling process was performed on the Ventana Discovery ULTRA, an Automated ISH platform(Ventana Medical System, Inc) using the RNAscope® VS Assay based on Advanced Cell Diagnostics (ACD). Customized probes were obtained from ACD for the detection of MALAT1 mRNA, and various parameters were tested to optimize the novel RNAscope method for ISH. The signal was amplified using multiple steps, followed by labeled probes and detected using the RNAscope® 2.5 VS Reagent Kit-RED. Stained slides were analyzed under a standard bright-field microscope.

MALAT1 mRNA [8] = assay: MALAT1 mRNA in isolated islets and liver 72 hrs after single subcutaneous dose; format: in vivo, mouse; details: single subcutaneous injection 0.01, 0.1 or 1 μmol/kg
Procedure: as §1, §2

MALAT1 [9] = assay: MALAT1 in situ hybridization in beta islet cells after i.v. GLP-1 ASO conjugates with various linkers; format: in vivo, mouse; details: male C57BL/6 mice; intravenous 0.6 μmol/kg/week once a week for three weeks; 72 hours after final injection
MALAT-1 = assay: Dose-dependent reduction of MALAT-1 expression in LVX-GLP1R cells; format: cell-based, human; details: approximately 24 hours; read-out: IC50 (MALAT-1 expression in GLP1R HEK cells)
Procedure: HEK cells stably expressing FLAG-tagged GLP1R were generated by infecting HEK 293 cells with FLAG-tagged GLP1R containing lentivirus produced by transfection of 293T cells with pLVX-IRES-Puro (Clontech Laboratories Inc., Mountainview, CA) harboring the FLAG-GLP1R insert. Infected cells were selected with puromycin (2 μg/ml) and then analyzed for receptor expression by western blot and immunofluorescence. Cultured GLP1R cells were plated at a density of 10,000 cells per well and treated with 0.3, 1, 3, 9, 27, 82, 247, 741, 2,222, 6,667, and 20,000 nM modified oligonucleotide for approximately 24 hours. After the treatment period, total RNA was prepared using an RNeasy mini kit (Qiagen, Valencia, CA, USA) and qRT-PCR was performed using the primer probe set RTS2739 (forward sequence: […] (SEQ ID NO: 74), reverse sequence: […] (SEQ ID NO: 75), probe sequence: […] (SEQ ID NO: 76). Briefly, ˜50 ng total RNA in 5 d water was mixed with 0.3 d primer probe sets containing forward and reverse primers (10 μM of each) and fluorescently labeled probe (3 μM), 0.3 W RT enzyme mix (Qiagen), 4.4 d RNase-free water, and 10 d of 2×PCR reaction buffer in a 20 d reaction. Reverse transcription was performed at 48° C. for 10 min, 40 cycles of PCR were conducted at 94° C. for 20 s, and 60° C. for 20 s within each cycle, using StepOne Plus RT-PCR system (Applied Biosystems, Phoenix, AZ, USA). The mRNA levels were normalized to the amount of total RNA present in each reaction as determined by Ribogreen assay (Life Technologies) and normalized to the saline control (100% expression).

MALAT1 [10] = assay: Effect of peptide composition and attachment point on peptide-conjugated ASO activity in LVX-GLP1R cells; format: cell-based, human; details: 7 doses in a 4-fold dilution series, MALAT1 RNA

Substance | reduction in FOXO1 mRNA (FOXO1 mRNA [1]; mouse islets, 1 μM ASO, summary of Table 2) | Islet FOXO1 mRNA levels relative to control (RPLP0) (FOXO1 mRNA [1]; 24 hours) [%] | Islet FOXO1 mRNA levels relative to control (RPLP0) (FOXO1 mRNA [1]; 48 hours) [%] | Islet FOXO1 mRNA levels relative to control (RPLP0) (FOXO1 mRNA [1]; 96 hours) [%] | antisense inhibition of FOXO1 in islet of Langerhans (FOXO1 mRNA [2]) | antisense inhibition of FOXO1 in islet of Langerhans (FOXO1 mRNA [3]) | effect in liver (MALAT1 in situ hybridization) (MALAT1 [4]; Study 2, single intravenous injection, any of the doses 0.2, 0.06, 0.02 μmol/kg) | MALAT1 expression in pancreatic beta islet cells (in situ hybridization) (MALAT1 [4]; male C57BL/6 mice, 2 intravenous injections of 1.8, 0.6 or 0.2 μmol/kg, 72 hours after final injection) | IC50 (MALAT1 mRNA [5]) [µM] | IC50 (MALAT1 mRNA [6]) [µM] | MALAT1 expression in the pancreatic islet of Langerhans (MALAT1 [7]) | antisense inhibition of MALAT1 in islet of Langerhans (MALAT1 mRNA [8]) | MALAT1 expression in beta islet cells compared to saline control (in situ hybridization) (MALAT1 [9]) | IC50 (MALAT-1) [µM] | IC50 (MALAT1 [10]) [µM]
ISIS 776102: unconjugated parent antisense oligonucleotide targeted to FOXO1, nucleobase sequence TCTTCTTAAAATACCC (SEQ ID NO: 64) (listed as DNA, further chemistry not given here) [reference compound] | marginal reduction | 82 | 86 | 92 | No significant antisense inhibition | No significant antisense inhibition | – | – | – | – | – | – | – | – | –
ISIS 556089: unconjugated parent 3-10-3 cEt ASO targeting murine MALAT1, nucleobase sequence GCATTCTAATAGCAGC (SEQ ID NO: 63) (sugars from the 5' end k3 d10 k3, backbone and methylation of C not given here) [reference compound] | – | – | – | – | – | – | No observable effect | not | 0.87 | 0.74 | not reduced | No significant antisense inhibition | not | 3.97 | 3.82
